From patent US11236055B2 (Venenum Biodesign, LLC, priority 2016, dated 2022)

Legend:
human TGR5 receptor = molecular target: T1, human TGR5 receptor (Homo sapiens, UniProt Q8TDU6); test: Human TGR5 cAMP production assay; assay type: cell-based; conditions: human TGR5, luminescent cAMP assay; coded A-D; read-out: Human TGR5 Lum. cAMP Activity (EC50)
T1 construct: host or cells: CHO-K1 (hTGR5-CHO cells)
T1 sequence (Q8TDU6 1-330): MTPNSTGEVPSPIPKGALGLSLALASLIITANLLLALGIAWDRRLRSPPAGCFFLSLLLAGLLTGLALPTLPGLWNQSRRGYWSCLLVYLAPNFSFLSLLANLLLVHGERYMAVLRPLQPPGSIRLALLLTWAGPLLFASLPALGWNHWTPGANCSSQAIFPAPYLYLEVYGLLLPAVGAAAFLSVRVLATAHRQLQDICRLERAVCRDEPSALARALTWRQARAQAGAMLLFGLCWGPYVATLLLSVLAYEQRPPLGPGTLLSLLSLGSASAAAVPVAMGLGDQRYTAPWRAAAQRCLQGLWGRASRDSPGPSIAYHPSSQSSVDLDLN
Method in brief: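 CHO-K1 cells stably expressing human TGR5, with IBMX and cAMP antibody, were exposed to half-log serially diluted compound for 1 h at room temperature. cAMP measured by enzyme-fragment complementation luminescence (XS+ kit) after overnight incubation; EC50 values reported.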

mouse TGR5 receptor = molecular target: T2, mouse TGR5 receptor (Mus musculus, UniProt Q80SS6); test: Mouse TGR5 cAMP production assay (HTRF, Cisbio cAMP HiRange); assay type: cell-based; conditions: HEK293-EBNA cells overexpressing mouse TGR5, HTRF cAMP HiRange; coded A-D
T2 construct: expressed in transfected cells; host or cells: HEK293-EBNA (293 c18, ATCC CRL10852), Hygromycin B selection
T2 sequence (Q80SS6 1-329): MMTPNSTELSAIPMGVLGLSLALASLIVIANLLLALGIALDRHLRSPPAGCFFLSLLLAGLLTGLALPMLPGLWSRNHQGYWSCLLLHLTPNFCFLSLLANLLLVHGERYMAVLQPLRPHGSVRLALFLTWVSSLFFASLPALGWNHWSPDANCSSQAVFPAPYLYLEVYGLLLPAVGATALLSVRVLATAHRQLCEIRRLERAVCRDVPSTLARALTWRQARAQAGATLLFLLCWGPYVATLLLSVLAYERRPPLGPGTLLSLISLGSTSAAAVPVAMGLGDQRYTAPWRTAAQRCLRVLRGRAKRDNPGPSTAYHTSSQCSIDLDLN
Method in brief: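 cAMP read by HTRF competition after 1 h room-temperature compound exposure of mouse TGR5-overexpressing HEK293-EBNA cells. Cells were suspended in serum-free DMEM containing 500 μM IBMX; compounds ran as 12-point half-log dilutions in duplicate; EC50 derived.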

`Cc1cnccc1-c1cccc([C@H](C)N(CCCC(=O)NCCNS(=O)(=O)NOC(C)(C)C)S(=O)(=O)c2cccc(Cl)c2C)c1` [Compound 37A] showed an EC50 (human TGR5 receptor) of less than 100 nM and an EC50 (mouse TGR5 receptor) of less than 100 nM.

`CCc1cnccc1-c1cccc([C@H](C)N(CCCC(=O)NCCNS(=O)(=O)NCC(=O)O)S(=O)(=O)c2cccc(Cl)c2C)c1` [Compound 38AA, (S)-2-((N-(2-(4-(3-chloro-N-(1-(3-(3-ethylpyridin-4-yl)phenyl)ethyl)-2-methylphenylsulfonamido)butanamido)ethyl)sulfamoyl)amino)acetic acid] was tested, and the EC50 (human TGR5 receptor) was less than 100 nM and the EC50 (mouse TGR5 receptor) was less than 100 nM.

Work on `Cc1cnccc1-c1cccc([C@H](C)N(CCCCO)S(=O)(=O)c2cccc(Cl)c2C)c1` [Compound 39, (S)-3-chloro-N-(4-hydroxybutyl)-2-methyl-N-(1-(3-(3-methylpyridin-4-yl)phenyl)ethyl)Benzenesulfonamide] yielded an EC50 (human TGR5 receptor) of less than 100 nM and an EC50 (mouse TGR5 receptor) of less than 100 nM.

`COc1cnccc1-c1cccc(C2CCCN2S(=O)(=O)c2cccc(C(F)(F)F)c2)c1` (stereo not drawn) [Compound 40, 3-methoxy-4-(3-(1-((3-(trifluoromethyl)phenyl)sulfonyl)pyrrolidin-2-yl)phenyl)pyridine] gave an EC50 (human TGR5 receptor) of 100 to 999 nM and an EC50 (mouse TGR5 receptor) of 1000 to 30000 nM.

Compound `COc1cnccc1-c1cccc(C2CCCN2S(=O)(=O)c2ccccc2C(F)(F)F)c1` (stereo not drawn) [Compound 40AA, 3-methoxy-4-(3-(1-((2-(trifluoromethyl)phenyl)sulfonyl)pyrrolidin-2-yl)phenyl)pyridine] has an EC50 (human TGR5 receptor) of less than 100 nM and an EC50 (mouse TGR5 receptor) of 1000 to 30000 nM.

`Cc1cnccc1-c1cccc(C2CNCCN2S(=O)(=O)c2cccc(Cl)c2C)c1` (stereo not drawn) [Compound 43AE, 1-((3-chloro-2-methylphenyl)sulfonyl)-2-(3-(3-methylpyridin-4-yl)phenyl)piperazine] gave an EC50 (human TGR5 receptor) of 100 to 999 nM and an EC50 (mouse TGR5 receptor) of 100 to 999 nM.

`CC(=O)N1CCN(S(=O)(=O)c2ccccc2C(F)(F)F)C(c2cccc(-c3ccncc3C)c2)C1` (stereo not drawn) [Compound 45, 1-(3-(3-(3-methylpyridin-4-yl)phenyl)-4-((2-(trifluoromethyl)phenyl)sulfonyl)piperazin-1-yl)ethanone] gave an EC50 (human TGR5 receptor) of 100 to 999 nM and an EC50 (mouse TGR5 receptor) of less than 100 nM.

With `CCc1cnccc1-c1cccc(C2CN(C(=O)CN(C)CC(=O)O)CCN2S(=O)(=O)c2cccc(Cl)c2C)c1` (stereo not drawn) [Compound 46AC, 2-((2-(4-((3-chloro-2-methylphenyl)sulfonyl)-3-(3-(3-ethylpyridin-4-yl)phenyl)piperazin-1-yl)-2-oxoethyl)(methyl)amino)acetic acid] the EC50 (human TGR5 receptor) was less than 100 nM and the EC50 (mouse TGR5 receptor) was less than 100 nM.

Work on `Cc1cnccc1-c1cccc(C2CN(C(=O)CCC(=O)O)CCN2S(=O)(=O)c2cccc(Cl)c2C)c1` (stereo not drawn) [Compound 46AD, 4-(4-((3-chloro-2-methylphenyl)sulfonyl)-3-(3-(3-methylpyridin-4-yl)phenyl)piperazin-1-yl)-4-oxobutanoic acid] yielded an EC50 (human TGR5 receptor) of 100 to 999 nM and an EC50 (mouse TGR5 receptor) of less than 100 nM.

`Cc1cnccc1-c1cccc(C2CN(C(=O)CCCC(=O)O)CCN2S(=O)(=O)c2cccc(Cl)c2C)c1` (stereo not drawn) [Compound 46AE, 5-(4-((3-chloro-2-methylphenyl)sulfonyl)-3-(3-(3-methylpyridin-4-yl)phenyl)piperazin-1-yl)-5-oxopentanoic acid] gave an EC50 (human TGR5 receptor) of less than 100 nM and an EC50 (mouse TGR5 receptor) of less than 100 nM.

With `Cc1c(Cl)cccc1S(=O)(=O)N1CCN(C(=O)CCC(=O)O)CC1c1cccc(-c2ccncc2)c1` (stereo not drawn) [Compound 46AF, 4-(4-((3-chloro-2-methylphenyl)sulfonyl)-3-(3-(pyridin-4-yl)phenyl)piperazin-1-yl)-4-oxobutanoic acid] the EC50 (human TGR5 receptor) was 1000 to 30000 nM and the EC50 (mouse TGR5 receptor) was 1000 to 30000 nM.

Work on `Cc1c(Cl)cccc1S(=O)(=O)N1CCN(C(=O)CCC(=O)O)CC1c1cccc(-c2ccncc2Cl)c1` (stereo not drawn) [Compound 46AG, 4-(4-((3-chloro-2-methylphenyl)sulfonyl)-3-(3-(3-chloropyridin-4-yl)phenyl)piperazin-1-yl)-4-oxobutanoic acid] yielded an EC50 (human TGR5 receptor) of 100 to 999 nM and an EC50 (mouse TGR5 receptor) of less than 100 nM.

`COc1cnccc1-c1cccc(C2CN(C(=O)CCC(=O)O)CCN2S(=O)(=O)c2cccc(Cl)c2C)c1` (stereo not drawn) [Compound 46AH, 4-(4-((3-chloro-2-methylphenyl)sulfonyl)-3-(3-(3-methoxypyridin-4-yl)phenyl)piperazin-1-yl)-4-oxobutanoic acid] showed an EC50 (human TGR5 receptor) of 100 to 999 nM and an EC50 (mouse TGR5 receptor) of less than 100 nM.

`Cc1cnccc1-c1cccc(C2CN(C(=O)CCC(=O)O)CCN2S(=O)(=O)c2ccccc2C)c1` (stereo not drawn) [Compound 46AI, 4-(3-(3-(3-methylpyridin-4-yl)phenyl)-4-(o-tolylsulfonyl)piperazin-1-yl)-4-oxobutanoic acid] showed an EC50 (human TGR5 receptor) of 100 to 999 nM and an EC50 (mouse TGR5 receptor) of less than 100 nM.

In the case of `COc1cccc(S(=O)(=O)N2CCN(C(=O)CCC(=O)O)CC2c2cccc(-c3ccncc3C)c2)c1` (stereo not drawn) [Compound 46AJ, 4-(4-((3-methoxyphenyl)sulfonyl)-3-(3-(3-methylpyridin-4-yl)phenyl)piperazin-1-yl)-4-oxobutanoic acid], the EC50 (human TGR5 receptor) is reported as 1000 to 30000 nM and the EC50 (mouse TGR5 receptor) is reported as 100 to 999 nM.

Work on `Cc1cnccc1-c1cccc(C2CN(C(=O)CCC(=O)O)CCN2S(=O)(=O)c2cccc(Cl)c2Cl)c1` (stereo not drawn) [Compound 46AK, 4-(4-((2,3-dichlorophenyl)sulfonyl)-3-(3-(3-methylpyridin-4-yl)phenyl)piperazin-1-yl)-4-oxobutanoic acid] yielded an EC50 (human TGR5 receptor) of 100 to 999 nM and an EC50 (mouse TGR5 receptor) of less than 100 nM.

In the case of `Cc1cnccc1-c1cccc(C2CN(C(=O)CCC(=O)O)CCN2S(=O)(=O)c2ccc(F)cc2C(F)(F)F)c1` (stereo not drawn) [Compound 46AL], the EC50 (human TGR5 receptor) is reported as 100 to 999 nM and the EC50 (mouse TGR5 receptor) is reported as 100 to 999 nM.

Compound `Cc1cnccc1-c1cccc(C2CN(C(=O)CS(=O)(=O)O)CCN2S(=O)(=O)c2ccccc2C)c1` (stereo not drawn) [Compound 49AA, 2-(3-(3-(3-methylpyridin-4-yl)phenyl)-4-(o-tolylsulfonyl)piperazin-1-yl)-2-oxoethanesulfonic acid] has an EC50 (human TGR5 receptor) of 100 to 999 nM and an EC50 (mouse TGR5 receptor) of less than 100 nM.

Work on `COc1cccc(S(=O)(=O)N2CCN(C(=O)CS(=O)(=O)O)CC2c2cccc(-c3ccncc3C)c2)c1` (stereo not drawn) [Compound 49AB, 2-(4-((3-methoxyphenyl)sulfonyl)-3-(3-(3-methylpyridin-4-yl)phenyl)piperazin-1-yl)-2-oxoethanesulfonic acid] yielded an EC50 (human TGR5 receptor) of 100 to 999 nM and an EC50 (mouse TGR5 receptor) of less than 100 nM.

Work on `Cc1cnccc1-c1cccc(C2CN(C(=O)CS(=O)(=O)O)CCN2S(=O)(=O)c2cccc(Cl)c2Cl)c1` (stereo not drawn) [Compound 49AC, 2-(4-((2,3-dichlorophenyl)sulfonyl)-3-(3-(3-methylpyridin-4-yl)phenyl)piperazin-1-yl)-2-oxoethanesulfonic acid] yielded an EC50 (human TGR5 receptor) of less than 100 nM and an EC50 (mouse TGR5 receptor) of less than 100 nM.

With `Cc1c(Cl)cccc1S(=O)(=O)N1CCN(C(=O)CS(=O)(=O)O)CC1c1cccc(-c2ccncc2)c1` (stereo not drawn) [Compound 49AD, 2-(4-((3-chloro-2-methylphenyl)sulfonyl)-3-(3-(pyridin-4-yl)phenyl)piperazin-1-yl)-2-oxoethanesulfonic acid] the EC50 (human TGR5 receptor) was 100 to 999 nM and the EC50 (mouse TGR5 receptor) was 100 to 999 nM.

`Cc1c(Cl)cccc1S(=O)(=O)N1CCN(C(=O)CS(=O)(=O)O)CC1c1cccc(-c2ccncc2Cl)c1` (stereo not drawn) [Compound 49AE, 2-(4-((3-chloro-2-methylphenyl)sulfonyl)-3-(3-(3-chloropyridin-4-yl)phenyl)piperazin-1-yl)-2-oxoethanesulfonic acid] was tested, and the EC50 (human TGR5 receptor) was 100 to 999 nM and the EC50 (mouse TGR5 receptor) was less than 100 nM.

`COc1cnccc1-c1cccc(C2CN(C(=O)CS(=O)(=O)O)CCN2S(=O)(=O)c2cccc(Cl)c2C)c1` (stereo not drawn) [Compound 49AF, 2-(4-((3-chloro-2-methylphenyl)sulfonyl)-3-(3-(3-methoxypyridin-4-yl)phenyl)piperazin-1-yl)-2-oxoethanesulfonic acid] gave an EC50 (human TGR5 receptor) of less than 100 nM and an EC50 (mouse TGR5 receptor) of less than 100 nM.

For `Cc1cnccc1-c1cccc(C2CN(C(=O)CS(=O)(=O)O)CCN2S(=O)(=O)c2ccccc2C(F)(F)F)c1` (stereo not drawn) [Compound 49AG, 2-(3-(3-(3-methylpyridin-4-yl)phenyl)-4-((2-(trifluoromethyl)phenyl)sulfonyl)piperazin-1-yl)-2-oxoethanesulfonic acid], the EC50 (human TGR5 receptor) was 100 to 999 nM and the EC50 (mouse TGR5 receptor) was less than 100 nM.

Work on `CCc1cnccc1-c1cccc(C2CN(C(=O)CP(=O)(O)O)CCN2S(=O)(=O)c2cccc(Cl)c2C)c1` (stereo not drawn) [Compound 50] yielded an EC50 (human TGR5 receptor) of 100 to 999 nM and an EC50 (mouse TGR5 receptor) of less than 100 nM.

Compound `CCc1cnccc1-c1cccc(C2CN(CC(=O)O)CCN2S(=O)(=O)c2cccc(Cl)c2C)c1` (stereo not drawn) [Compound 51, 2-(4-((3-Chloro-2-methylphenyl)sulfonyl)-3-(3-(3-ethylpyridin-4-yl)phenyl)piperazin-1-yl)acetic acid] has an EC50 (human TGR5 receptor) of 100 to 999 nM and an EC50 (mouse TGR5 receptor) of 100 to 999 nM.

`Cc1cnccc1-c1cccc(C2CN(CCCC(=O)O)CCN2S(=O)(=O)c2cccc(Cl)c2C)c1` (stereo not drawn) [Compound 52, 4-(4-((3-chloro-2-methylphenyl)sulfonyl)-3-(3-(3-methylpyridin-4-yl)phenyl)piperazin-1-yl)butanoic acid] gave an EC50 (human TGR5 receptor) of 100 to 999 nM and an EC50 (mouse TGR5 receptor) of 100 to 999 nM.
